Experimental data published in article PMC9838390, “Discovery and biosynthesis of karnamicins as angiotensin converting enzyme inhibitors” (Nature Communications, 2023).
Several values for one entry are separate records, joined by “and”; a condition that tells them apart may be missing. Equal values may be shown once.

Legend:
Assay type in all cases: biochemical, L. rhizosphaerae NEAU-A2
KnmB2 [1] = experiment: Hydrogen peroxide formation assay of KnmB2 and variants
Method: (§1) Hydrogen peroxide formation assay and NADPH oxidation
(§2) The hydrogen peroxide formed from KnmB1, KnmB2 and their variants were measured using the Hydrogen Peroxide Assay Kit (Beyotime Industrial Co. Ltd, Shanghai, China)4-5. 5–100 µL of enzyme reaction mixture was added to 100 µL of working reagent (S0038-1). The mixture was incubated for 30 min at 25 °C, at which time the absorbance at 560 nm was measured by NanoDrop 2000c (Fisher Scientific). […]
(§3) Spectral data for new compounds […]
Supplementary Figure 131. H2O2 generation and NADPH oxidation for KnmB2, KnmB1 and their variants. (a) Hydrogen peroxide formation of KnmB2 and variants. […]
(1 picture or pasted object on this page, not shown here) […]
(§4) H2O2 generation for KnmB2 and variants in the presence 24 or 32. Reaction conditions (h-j) for KnmB2 and their variants: 50 mM Tris-HCl buffer (pH 7.5), 0.15 mM NADPH, 2 μM KnmB2 or variants, or 0.1 mM substrate 24/32. Values are the means ± SD of n = 3 independent experiments, except for KnmB2+24 (T = 40 min), KnmB2-N219D+24 (T = 4 min), KnmB2-Y215F+24 (T= 1 min and 3 min) in i and j, and KnmB2+32 (T= 8 min) in j (n = 2). Source data are provided as a Source Data file. […]

KnmB1 = experiment: NADPH oxidation of KnmB1 and variants (340 nm); conditions: KnmB1 + compound
Method: Hydrogen peroxide formation assay and NADPH oxidation […]
(§5) NADPH detection was carried out in the cuvette by NanoDrop 2000c (Fisher Scientific). NADPH signal at 340 nm was monitored in time using 6220 M–1 cm–1 as […]
as §3
Reaction conditions: 50 mM Tris-HCl buffer (pH 7.5), 0.15 mM NADPH, and 2 μM KnmB1 or KnmB2. (e) NADPH oxidation of KnmB1 and variants. (f) NADPH oxidation of KnmB1 in the presence 24/32/36. (g) NADPH oxidation of KnmB1 and variants in the presence 24. Reaction conditions (e-g) for KnmB1 and their variants: 50 mM Tris-HCl buffer (pH 7.5), 0.15 mM NADPH, and 6 μM KnmB1 or variants, or 0.1 mM substrate 24/32/36. […]
2 μM KnmB2 or variants, or 0.1 mM substrate 24/32. […]
Source data are provided as a Source Data file. […]

KnmB2 [2] = experiment: NADPH oxidation of KnmB2 and variants (340 nm)
Method: as §1
as §2, with “Scientific). The level of H2O2 was calculated according to a standard concentration curve from standard” for “Scientific).”
as §5, §3
Reaction conditions: 50 mM Tris-HCl buffer (pH 7.5),
0.15 mM NADPH, and 2 μM KnmB1 or KnmB2. […]
as §4, with “μM KnmB1 or variants, or 0.1 mM substrate 24/32/36. (h) NADPH oxidation of KnmB2 and variants. (i) NADPH oxidation of KnmB2 and variants in the presence 24 or 32. (j) H2O2” for “H2O2”

For `COc1cc(C(N)=O)nc(-c2csc(CCCCC(C)C)n2)c1` [Compound 32], which “hydrogen peroxide formation of KnmB2 (absorbance UV λ=560 nm), average value” (KnmB2 [1]; Fig. S131a, 1 mM NADPH, 16 μM KnmB2, 0.1 mM compound, 30 °C, 3 h, average of 3) is on record?
Its value is 0.3257.

And the “H2O2 generation, average value” (KnmB2 [1]; KnmB2+32, Time 0)?
The value was 0.0000 µM.

And the “H2O2 generation, average value” (KnmB2 [1]; KnmB2+32, Time 1)?
Its value is 27.0071 µM.

And the “H2O2 generation, average value” (KnmB2 [1]; KnmB2+32, Time 2)?
The value was 45.8172 µM.

And the “H2O2 generation, average value” (KnmB2 [1]; KnmB2+32, Time 3)?
The value was 50.8645 µM.

And the “H2O2 generation, average value” (KnmB2 [1]; KnmB2+32, Time 4)?
The value was 59.9799 µM.

And the “H2O2 generation, average value” (KnmB2 [1]; KnmB2+32, Time 5)?
Its value is 63.9929 µM.

And the “H2O2 generation, average value” (KnmB2 [1]; KnmB2+32, Time 8)?
The value was 70.1572 µM.

And the “H2O2 generation, average value” (KnmB2 [1]; KnmB2+32, Time 10)?
The value was 68.2817 µM.

What about the “H2O2 generation, average value” (KnmB2 [1]; KnmB2+32, Time 15) of the same compound?
The value was 68.3920 µM.

And the “H2O2 generation, average value” (KnmB2 [1]; KnmB2+32, Time 20)?
The value was 65.9649 µM.

What about the “H2O2 generation, average value” (KnmB2 [1]; KnmB2+32, Time 30) of the same compound?
Its value is 69.8125 µM.

What about the “H2O2 generation, average value” (KnmB2 [1]; KnmB2+32, Time 60) of the same compound?
Its value is 64.9169 µM.

And the “NADPH oxidation of KnmB1 in the presence of compound (replicates 1, 2, 3)” value (shortened to “NADPH oxidation of KnmB1 … (replicates 1, 2, 3)”) (KnmB1; Time 0)?
The value was 0.0000 µM.

What about the “NADPH oxidation of KnmB1 in the presence of compound, average value” (shortened to “NADPH oxidation of KnmB1 … average value”) (KnmB1; Time 0) of the same compound?
The value was 0.0000 µM.

And the “NADPH oxidation of KnmB1 … (replicates 1, 2, 3)” value (KnmB1; Time 1)?
The value was 1.5273 µM and 2.1061 µM and 2.0418 µM.

And the “NADPH oxidation of KnmB1 … average value” (KnmB1; Time 1)?
The value was 1.8918 µM.

What about the “NADPH oxidation of KnmB1 … (replicates 1, 2, 3)” value (KnmB1; Time 2) of the same compound?
The value was 1.8328 µM and 3.1029 µM and 1.2701 µM.

What about the “NADPH oxidation of KnmB1 … average value” (KnmB1; Time 2) of the same compound?
Its value is 2.0686 µM.

And the “NADPH oxidation of KnmB1 … (replicates 1, 2, 3)” value (KnmB1; Time 3)?
The value was 2.5241 µM and 3.7621 µM and 2.2026 µM.

What about the “NADPH oxidation of KnmB1 … average value” (KnmB1; Time 3) of the same compound?
Its value is 2.8296 µM.

What about the “NADPH oxidation of KnmB1 … (replicates 1, 2, 3)” value (KnmB1; Time 4) of the same compound?
The value was 3.7781 µM and 5.3698 µM and 2.4759 µM.

And the “NADPH oxidation of KnmB1 … average value” (KnmB1; Time 4)?
The value was 3.8746 µM.

What about the “NADPH oxidation of KnmB1 … (replicates 1, 2, 3)” value (KnmB1; Time 5) of the same compound?
The value was 4.0032 µM and 5.5627 µM and 2.3955 µM.

And the “NADPH oxidation of KnmB1 … average value” (KnmB1; Time 5)?
The value was 3.9871 µM.

And the “NADPH oxidation of KnmB1 … (replicates 1, 2, 3)” value (KnmB1; Time 8)?
The value was 4.4212 µM and 7.7974 µM and 3.6978 µM.

And the “NADPH oxidation of KnmB1 … average value” (KnmB1; Time 8)?
The value was 5.3055 µM.

And the “NADPH oxidation of KnmB1 … (replicates 1, 2, 3)” value (KnmB1; Time 10)?
Its value is 5.8360 µM and 8.6174 µM and 5.4019 µM.

What about the “NADPH oxidation of KnmB1 … average value” (KnmB1; Time 10) of the same compound?
Its value is 6.6184 µM.

And the “NADPH oxidation of KnmB1 … (replicates 1, 2, 3)” value (KnmB1; Time 15)?
Its value is 7.9100 µM and 11.8971 µM and 10.3055 µM.

And the “NADPH oxidation of KnmB1 … average value” (KnmB1; Time 15)?
Its value is 10.0375 µM.

What about the “NADPH oxidation of KnmB1 … (replicates 1, 2, 3)” value (KnmB1; Time 20) of the same compound?
The value was 9.0836 µM and 14.3891 µM and 16.4148 µM.

And the “NADPH oxidation of KnmB1 … average value” (KnmB1; Time 20)?
The value was 13.2958 µM.

What about the “NADPH oxidation of KnmB1 … (replicates 1, 2, 3)” value (KnmB1; Time 30) of the same compound?
Its value is 13.7942 µM and 22.5402 µM and 24.0193 µM.

And the “NADPH oxidation of KnmB1 … average value” (KnmB1; Time 30)?
Its value is 20.1179 µM.

And the “NADPH oxidation of KnmB1 … (replicates 1, 2, 3)” value (KnmB1; Time 40)?
Its value is 17.5724 µM and 28.7299 µM and 26.9936 µM.

What about the “NADPH oxidation of KnmB1 … average value” (KnmB1; Time 40) of the same compound?
The value was 24.4319 µM.

What about the “NADPH oxidation of KnmB1 … (replicates 1, 2, 3)” value (KnmB1; Time 60) of the same compound?
The value was 24.1801 µM and 36.1576 µM and 36.4791 µM.

And the “NADPH oxidation of KnmB1 … average value” (KnmB1; Time 60)?
Its value is 32.2722 µM.

And the “stimulation of the reaction of KnmB2 with NADPH” value (KnmB2 [2]; 0.15 mM NADPH, 2 μM KnmB2, 0.1 mM compound (Fig. S131i, j))?
The value was “could dramatically stimulate the reaction of KnmB2 with NADPH”.

And the “NADPH oxidation, average value” (KnmB2 [2]; KnmB2+32, Time 0)?
Its value is 0.0000 µM.

What about the “NADPH oxidation, average value” (KnmB2 [2]; KnmB2+32, Time 1) of the same compound?
Its value is 36.1736 µM.

What about the “NADPH oxidation, average value” (KnmB2 [2]; KnmB2+32, Time 2) of the same compound?
Its value is 67.6313 µM.

And the “NADPH oxidation, average value” (KnmB2 [2]; KnmB2+32, Time 3)?
Its value is 89.9250 µM.

And the “NADPH oxidation, average value” (KnmB2 [2]; KnmB2+32, Time 4)?
Its value is 104.0193 µM.

What about the “NADPH oxidation, average value” (KnmB2 [2]; KnmB2+32, Time 5) of the same compound?
Its value is 113.9871 µM.

What about the “NADPH oxidation, average value” (KnmB2 [2]; KnmB2+32, Time 8) of the same compound?
Its value is 126.0986 µM.

And the “NADPH oxidation, average value” (KnmB2 [2]; KnmB2+32, Time 10)?
Its value is 129.3140 µM.

What about the “NADPH oxidation, average value” (KnmB2 [2]; KnmB2+32, Time 15) of the same compound?
Its value is 133.2797 µM.

What about the “NADPH oxidation, average value” (KnmB2 [2]; KnmB2+32, Time 20) of the same compound?
The value was 134.8875 µM.

And the “NADPH oxidation, average value” (KnmB2 [2]; KnmB2+32, Time 30)?
The value was 135.6377 µM.

What about the “NADPH oxidation, average value” (KnmB2 [2]; KnmB2+32, Time 60) of the same compound?
Its value is 137.7278 µM.
